Test results as given in the supplement of paper PMC10307832.

Compound: CC1(C)CNc2cc(NC(=O)c3cccnc3NCc3ccncc3)ccc21 [Motesanib] + Cc1cc(Nc2cc(N3CCN(C)CC3)nc(Sc3ccc(NC(=O)C4CC4)cc3)n2)n[nH]1 [Tozasertib] (partner 0.1 µM)
Experiment: relative viability (nuclei count vs DMSO), 5 days (fraction); higher = more cells survive
Settings: first compound 1 µM
Outline: (§1)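 Lung cancer cell lines, seeded in 1536-well plates, were treated the following day by pin tool with a single drug or with five library-drug doses (not always all listed) in √10 steps on top of a fixed anchor-drug dose. Cells were fixed and nuclei stained in one step after 5 days, and nuclei were counted. Relative viability is the nuclei count for treated wells divided by that for vehicle wells, reported as medians of duplicate plates.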

Point of comparison: NCI-H1793, relative viability 0.302. Against it:
- PC-14 — higher, 0.617
- EKVX — higher, 0.422
- LC-2-ad — higher, 0.45
- NCI-H1944 — lower, 0.284
- NCI-H1975 — higher, 0.648
- RERF-LC-KJ — higher, 0.505
- ABC-1 — lower, 0.149

Compound: C[C@@]1(C(=O)Nc2ccc(F)nc2)CCCN1c1nc(Nc2cc(C3CC3)n[nH]2)c2cccn2n1 + Cc1nc(NC(=O)N2CCC[C@H]2C(N)=O)sc1-c1ccnc(C(C)(C)C(F)(F)F)c1 [Alpelisib] (partner 2 µM)
Experiment: as above
Settings: first compound 0.04 µM
Outline: as §1

Point of comparison: NCI-H1944, relative viability 0.72. Against it:
- LU99A — lower, 0.392
- BEN — higher, 1.16
- HARA — higher, 0.73
- HCC-78 — lower, 0.321
- NCI-H322M — lower, 0.694
- LCLC-97TM1 — lower, 0.186
- A-427 — higher, 1.08
- NCI-H441 — lower, 0.616
- NCI-H1734 — lower, 0.571
- NCI-H460 — lower, 0.401
- NCI-H2347 — higher, 1.17
- NCI-H1395 — higher, 0.988
- 201T — higher, 0.893
- NCI-H1915 — higher, 1.09
- HCC-827 — higher, 0.987
- LXF-289 — higher, 1.09
- NCI-H23 — lower, 0.595
- NCI-H647 — higher, 1.24
- CAL-12T — higher, 1.16
- NCI-H1651 — higher, 0.86
- EPLC-272H — higher, 1.03
- NCI-H1355 — higher, 0.816
- NCI-H3122 — lower, 0.637
- NCI-H1437 — higher, 0.722
- NCI-H1755 — higher, 0.91
- HCC-15 — higher, 0.896
- NCI-H1793 — higher, 0.731
- PC-14 — higher, 0.89
- EKVX — higher, 0.837
- LC-2-ad — higher, 0.764
- NCI-H1975 — lower, 0.638
- RERF-LC-KJ — lower, 0.708
- ABC-1 — higher, 0.875

Same assay, conditions: first compound 0.1265 µM

Point of comparison: NCI-H1915, relative viability 1.08. Against it:
- LU99A — lower, 0.306
- BEN — higher, 1.37
- HARA — lower, 0.681
- HCC-78 — lower, 0.196
- NCI-H322M — lower, 0.539
- LCLC-97TM1 — lower, 0.156
- A-427 — higher, 1.09
- NCI-H441 — lower, 0.547
- NCI-H1734 — lower, 0.509
- NCI-H460 — lower, 0.207
- NCI-H2347 — lower, 0.873
- NCI-H1395 — lower, 0.719
- 201T — lower, 0.836
- HCC-827 — lower, 1
- LXF-289 — lower, 0.991
- NCI-H23 — lower, 0.407
- NCI-H647 — lower, 0.957
- CAL-12T — higher, 1.14
- NCI-H1651 — lower, 0.785
- EPLC-272H — lower, 0.876
- NCI-H1355 — lower, 0.758
- NCI-H3122 — lower, 0.514
- NCI-H1437 — lower, 0.561
- NCI-H1755 — lower, 0.746
- HCC-15 — lower, 0.757
- NCI-H1793 — lower, 0.625
- PC-14 — lower, 0.828
- EKVX — lower, 0.672
- LC-2-ad — lower, 0.726
- NCI-H1944 — lower, 0.657
- NCI-H1975 — lower, 0.553
- RERF-LC-KJ — lower, 0.866
- ABC-1 — lower, 0.845

Same assay, conditions: first compound 0.4 µM

Point of comparison: LU99A, relative viability 0.291. Against it:
- BEN — higher, 0.929
- HARA — higher, 0.569
- HCC-78 — lower, 0.23
- NCI-H322M — higher, 0.557
- LCLC-97TM1 — lower, 0.181
- A-427 — higher, 1.03
- NCI-H441 — higher, 0.492
- NCI-H1734 — higher, 0.476
- NCI-H460 — lower, 0.222
- NCI-H2347 — higher, 0.94
- NCI-H1395 — higher, 1.15
- 201T — higher, 0.767
- NCI-H1915 — higher, 1.04
- HCC-827 — higher, 0.93
- LXF-289 — higher, 0.975
- NCI-H23 — higher, 0.41
- NCI-H647 — higher, 0.864
- CAL-12T — higher, 0.762
- NCI-H1651 — higher, 0.779
- EPLC-272H — higher, 0.719
- NCI-H1355 — higher, 0.613
- NCI-H3122 — higher, 0.631
- NCI-H1437 — higher, 0.581
- NCI-H1755 — higher, 0.806
- HCC-15 — higher, 0.829
- NCI-H1793 — higher, 0.553
- PC-14 — higher, 0.833
- EKVX — higher, 0.581
- LC-2-ad — higher, 0.61
- NCI-H1944 — higher, 0.669
- NCI-H1975 — higher, 0.472
- RERF-LC-KJ — higher, 0.515
- ABC-1 — higher, 0.659

Same assay, conditions: first compound 1.265 µM

Point of comparison: CAL-12T, relative viability 0.953. Against it:
- LU99A — lower, 0.307
- BEN — higher, 1.16
- HARA — lower, 0.697
- HCC-78 — lower, 0.257
- NCI-H322M — lower, 0.895
- LCLC-97TM1 — lower, 0.181
- A-427 — higher, 1.16
- NCI-H441 — lower, 0.56
- NCI-H1734 — lower, 0.605
- NCI-H460 — lower, 0.389
- NCI-H2347 — higher, 1.11
- NCI-H1395 — higher, 1.1
- 201T — lower, 0.942
- NCI-H1915 — higher, 1.06
- HCC-827 — higher, 1.01
- LXF-289 — higher, 1.1
- NCI-H23 — lower, 0.601
- NCI-H647 — lower, 0.913
- NCI-H1651 — lower, 0.904
- EPLC-272H — higher, 1.1
- NCI-H1355 — lower, 0.868
- NCI-H3122 — lower, 0.564
- NCI-H1437 — lower, 0.717
- NCI-H1755 — higher, 0.999
- HCC-15 — lower, 0.937
- NCI-H1793 — lower, 0.731
- PC-14 — lower, 0.941
- EKVX — lower, 0.666
- LC-2-ad — lower, 0.504
- NCI-H1944 — lower, 0.834
- NCI-H1975 — lower, 0.482
- RERF-LC-KJ — lower, 0.787
- ABC-1 — lower, 0.945

Compound: CC1(C)CNc2cc(NC(=O)c3cccnc3NCc3ccncc3)ccc21 [Motesanib] + COc1cc2c(Oc3ccc(NC(=O)C4(C(=O)Nc5ccc(F)cc5)CC4)cc3F)ccnc2cc1OCCCN1CCOCC1 [Foretinib] (partner 0.25 µM)
Experiment: as above
Settings: first compound 0.01 µM
Outline: as §1

Point of comparison: LU99A, relative viability 0.795. Against it:
- BEN — lower, 0.627
- HARA — higher, 0.94
- HCC-78 — lower, 0.665
- NCI-H322M — higher, 1.09
- LCLC-97TM1 — higher, 0.948
- A-427 — higher, 1.04
- NCI-H441 — higher, 0.889
- NCI-H1734 — higher, 0.932
- NCI-H460 — higher, 0.942
- NCI-H2347 — higher, 0.85
- NCI-H1395 — higher, 0.973
- 201T — higher, 1.09
- NCI-H1915 — higher, 1.07
- HCC-827 — higher, 0.963
- LXF-289 — higher, 1
